# According to ChEMBL document CHEMBL3045964, “Synthesis, cytotoxicity, and structureactivity insight of NH- and N-methyl-3,5-bis-(arylidenyl)-4-piperidones” (Med Chem Res, 2013):
# Tests used:
# L1210 = experiment: Cytotoxicity against Mus musculus (mouse) L1210 cells assessed as growth inhibition after 72 hr by MTT assay; type: functional, cell-based; details: L1210, 72 h
# B16 = experiment: Cytotoxicity against Mus musculus (mouse) B16 cells assessed as growth inhibition after 72 hr by MTT assay; type: functional, cell-based; details: B16, 72 h
SMILES,IC50 (L1210) [µM],IC50 (B16) [µM]
COc1ccc(OC)c(/C=C2\CNC/C(=C\c3cc(OC)ccc3OC)C2=O)c1,0.3,0.3
O=C1/C(=C/c2cccc(O)c2)CNC/C1=C\c1cccc(O)c1,2.3,0.7
CCN(CC)c1ccc(/C=C2\CNC/C(=C\c3ccc(N(CC)CC)cc3)C2=O)cc1,35,1.5
O=C1/C(=C/c2ccc(Cl)cc2)CNC/C1=C\c1ccc(Cl)cc1,7,4
CN1C/C(=C\c2ccc(F)cc2)C(=O)/C(=C/c2ccc(F)cc2)C1,31,6.5
COc1cc(/C=C2\CNC/C(=C\c3cc(OC)cc(OC)c3)C2=O)cc(OC)c1,0.3,0.3
COc1cc(OC)c(/C=C2\CNC/C(=C\c3c(OC)cc(OC)cc3OC)C2=O)c(OC)c1,1.1,0.2
O=C1/C(=C/c2ccc3c(c2)OCO3)CNC/C1=C\c1ccc2c(c1)OCO2,12.5,25
CN1C/C(=C\c2ccc(N(C)C)cc2)C(=O)/C(=C/c2ccc(N(C)C)cc2)C1,28.5,23.5
O=C1/C(=C/c2ccc(Cl)c(Cl)c2)CNC/C1=C\c1ccc(Cl)c(Cl)c1,3.6,4.1
O=C1/C(=C/c2ccc(F)cc2)CNC/C1=C\c1ccc(F)cc1,24.5,3.8
CN(C)c1ccc(/C=C2\CNC/C(=C\c3ccc(N(C)C)cc3)C2=O)cc1,42.5,32.5
COc1ccc(/C=C2\CNC/C(=C\c3ccc(OC)nc3)C2=O)cn1,2.8,3.6
COc1cccc(/C=C2\CNC/C(=C\c3cccc(OC)c3)C2=O)c1,4.3,1.9
CN1C/C(=C\c2ccc(Cl)cc2)C(=O)/C(=C/c2ccc(Cl)cc2)C1,10,3.8
CCN(CC)c1ccc(/C=C2\CN(C)C/C(=C\c3ccc(N(CC)CC)cc3)C2=O)cc1,3.3,33
O=C1/C(=C/c2ccc(O)c([N+](=O)[O-])c2)CNC/C1=C\c1ccc(O)c([N+](=O)[O-])c1,2,7.3
O=C1/C(=C/c2cccc(Br)c2)CNC/C1=C\c1cccc(Br)c1,> 100,2.1
CCN(CC)c1ccc2cc(/C=C3\CNC/C(=C\c4cc5ccc(N(CC)CC)cc5oc4=O)C3=O)c(=O)oc2c1,29,44
CN1C/C(=C\c2cccc(Br)c2)C(=O)/C(=C/c2cccc(Br)c2)C1,5,2.1
